From patent US5683895A, “9-deazaadenosine and its 5'-α-D-glycopyranoside isolated from the cyanobacterium Anabaena affinis strain VS-1” (priority 1995, dated 1997)
Converted amounts (≈) assume the structure as drawn.

Experiments:
[1] = test system: L1210 murine leukemia cells; assay: Cytotoxicity to L1210 murine leukemia cells; format: cell-based; settings: Mus musculus
[2] = Lethal toxicity to the aquatic invertebrate Ceriodaphnia dubia (acute 48 hr and chronic 7 day); settings: in vivo

Row | SMILES | IC50 [1] [ng/mL] | LC50 at 48 h [2] [µg/mL] | LC50 at 168 h [2] [µg/mL]
1 | Nc1ncnc2c([C@@H]3O[C@H](CO[C@H]4O[C@H](CO)[C@@H](O)[C@H](O)[C@H]4O)[C@@H](O)[C@H]3O)c[nH]c12 [Compound 1, 9-deazaadenosine 5'-α-D-glucopyranoside] | 10 (≈ 0.0233 µM) | 0.5 (≈ 1.17 µM) | 0.3 (≈ 0.7 µM)
2 | Nc1ncnc2c([C@@H]3O[C@H](CO)[C@@H](O)[C@H]3O)c[nH]c12 [Compound 2, 9-deazaadenosine] | 2 (≈ 0.00751 µM) | 0.3 (≈ 1.13 µM) | 0.1 (≈ 0.376 µM)
